Reference: the supplement of paper PMC10307832

Assays:
Assay in all cases: relative viability (nuclei count vs DMSO), 5 days (fraction); higher = more cells survive
Staurosporine + OSI-027 = compound: CN[C@@H]1C[C@H]2O[C@@](C)([C@@H]1OC)n1c3ccccc3c3c4c(c5c6ccccc6n2c5c31)C(=O)NC4 [Staurosporine] + COc1cccc2cc(-c3nc([C@H]4CC[C@H](C(=O)O)CC4)n4ncnc(N)c34)[nH]c12 [OSI-027] (partner 0.5 µM)
Method in brief: (§1)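 Relative viability was taken as the ratio of nuclei in treated wells to nuclei in vehicle wells. Lung cancer cell lines in 1536-well plates received compounds by pin tool one day after seeding, either one drug alone or a fixed anchor-drug dose plus five library-drug doses (not always all listed) in √10 steps. Nuclei were counted on 4× images after 5 days of treatment, and values are medians of duplicate plates.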

Sulindac + Navitoclax = compound: CC1=C(CC(=O)O)c2cc(F)ccc2/C1=C\c1ccc([S+](C)[O-])cc1 [Sulindac] + CC1(C)CCC(c2ccc(Cl)cc2)=C(CN2CCN(c3ccc(C(=O)NS(=O)(=O)c4ccc(N[C@H](CCN5CCOCC5)CSc5ccccc5)c(S(=O)(=O)C(F)(F)F)c4)cc3)CC2)C1 [Navitoclax] (partner 0.5 µM)
Method in brief: as §1

[1] = compound: O=c1[nH]cc(F)c(=O)[nH]1 [5-Fluorouracil] + CC(=O)Nc1cccc(-n2c(=O)n(C3CC3)c(=O)c3c(Nc4ccc(I)cc4F)n(C)c(=O)c(C)c32)c1 [Trametinib] (partner 0.02 µM)
Method in brief: as §1

[2] = compound: O=c1[nH]cc(F)c(=O)[nH]1 [5-Fluorouracil] + C[C@]1(O)C[C@@H](c2nc(-c3ccc4ccc(-c5ccccc5)nc4c3)c3c(N)nccn32)C1 [Linsitinib] (partner 1 µM)
Method in brief: as §1

Cell Line	relative viability (Staurosporine + OSI-027; first compound 0.005 µM)	relative viability (Staurosporine + OSI-027; first compound 0.01581 µM)	relative viability (Staurosporine + OSI-027; first compound 0.05 µM)	relative viability (Staurosporine + OSI-027; first compound 0.1581 µM)	relative viability (Staurosporine + OSI-027; first compound 0.5 µM)	relative viability (Sulindac + Navitoclax; first compound 0.08 µM)	relative viability (Sulindac + Navitoclax; first compound 0.253 µM)	relative viability (Sulindac + Navitoclax; first compound 0.8 µM)	relative viability (Sulindac + Navitoclax; first compound 2.53 µM)	relative viability (Sulindac + Navitoclax; first compound 8 µM)	relative viability ([1]; first compound 0.02 µM)	relative viability ([1]; first compound 0.2 µM)	relative viability ([1]; first compound 0.6325 µM)	relative viability ([1]; first compound 2 µM)	relative viability ([2]; first compound 0.02 µM)	relative viability ([2]; first compound 0.2 µM)	relative viability ([2]; first compound 0.6325 µM)	relative viability ([2]; first compound 2 µM)
NCI-H2347	0.385	0.229	0.171	0.277	0.238	0.821	0.803	0.641	0.725	0.862	0.281	0.256	0.293	0.166	0.997	0.748	0.467	0.411
201T	0.462	0.338	0.454	0.247		1.19	1.15	1.27	1.16	1.23	0.715	0.563	0.305	0.284	0.991	0.955	0.452	0.342
NCI-H1755	0.344	0.268	0.209	0.189	0.18	1.17	1.09	0.821	1.08	1.13	0.796	0.688	0.417	0.37	0.96	0.796	0.322	0.254
NCI-H647	0.29	0.123	0.149	0.0899	0.0651	1.48	1.26	0.991	1.04	1.53	0.444	0.479	0.406	0.393	1.05	1.32	1.16	0.701
NCI-H1355	0.332	0.15	0.192	0.157	0.143	1.03	0.989	0.806	0.961	0.914	0.443	0.387	0.265	0.242	0.639	0.681	0.398	0.314
NCI-H1975	0.573	0.144	0.187		0.0826	1.26	1.24		1.21	1.25	0.307	0.548	0.313	0.238	0.902	1.02	0.489	0.308
BEN	0.386	0.287	0.275	0.247	0.193	0.0725	0.0631	0.065	0.0775	0.0638	0.934	0.93	0.946	0.938	0.813	0.754	0.641	0.646
NCI-H322M	0.619	0.309	0.292	0.294	0.235	1.28	1.37	1.08	1.27	1.29	0.532	0.664	0.463	0.456	0.898	0.747	0.652	0.64
SK-MES-1	0.202	0.18	0.147	0.134	0.106	1.43	1.3	1.31	1.27	1.45	0.496	0.552	0.381	0.352	1.07	0.799	0.433	0.337
HOP-62	0.554	0.225	0.125	0.112	0.0933	0.982	1.37		1.21	1.22	0.362	0.417	0.392	0.357	1.11	1.03	0.86	0.765
HCC-366	0.952		0.463	0.0332	0.0243	1.32	1.19	0.817	0.957	1.18	0.332	0.238	0.14	0.0725	0.673	0.82	0.254	0.0796
NCI-H2405	0.593	0.182	0.116	0.0974	0.0903	0.934	0.9	0.783	0.859	1.11	0.629	0.692	0.579	0.6	0.883	0.967	0.881	0.672
LXF-289	0.215	0.0608	0.116	0.0713	0.051	1	0.97	0.953	0.999	0.965	0.674	0.591	0.346	0.33	1	0.67	0.389	0.308
NCI-H1793	0.378		0.174	0.0897	0.102	0.341	0.396	0.364	0.458	0.473	0.398	0.49	0.373	0.38	0.691	0.92	0.815	0.496
NCI-H1734	0.456	0.245	0.209	0.13	0.0703	0.785	1.03	0.594	0.987	1.12	0.709	0.682	0.584	0.415	0.762	1.05	0.706	0.546
LU99A	0.224	0.164	0.229	0.155	0.144	0.964	0.781	0.689	0.73	0.878	0.655	0.559	0.374	0.268	0.549	0.607	0.426	0.422
RERF-LC-KJ	0.475	0.3	0.234	0.234	0.181	1.23	0.983	0.797	0.749	1.11	0.949	0.811	0.838	0.7	0.832	0.775	0.792	0.764
NCI-H2087	0.366	0.135	0.147	0.106	0.107	0.958	0.939	0.88	0.973	1.1	0.216	0.157	0.167	0.216	0.91	0.865	0.657	
HCC-78	0.361	0.37	0.308	0.336	0.296	0.784	0.716	0.711	0.71	0.77	1.01	0.717	0.435	0.297	0.398	0.528	0.258	
NCI-H1395	0.605	0.395	0.42	0.249	0.239	1.2	1.17	1.1	1.19	1.2	1.03	0.987	1.12	1.11	0.884	1.19	1.03	1.25
NCI-H2228	0.689	0.273	0.188	0.0855	0.0902	0.937	0.967	0.839	1.46	1.01	0.628	0.685	0.441	0.326	0.443	0.627	0.48	0.36
H3255	0.408	0.339	0.265	0.216	0.182	0.54	0.685	0.551	0.512	0.612	0.664	0.716	0.687	0.567	0.99	1.07	0.853	0.579
HCC-15	0.565		0.296	0.113	0.0919	0.811	0.795	0.625	0.708	0.798	0.321	0.365	0.34	0.284	0.894	0.827	0.584	0.308
NCI-H838	0.207	0.153	0.196	0.162		1.33	1.19	1.1	1.18	1.39	0.482	0.579	0.373	0.246	1.01	1.06	0.578	0.312
NCI-H2023	0.185	0.101	0.084	0.0704	0.0498	1.37	0.987	0.987	0.977	1.24	0.472	0.21	0.133	0.0877	0.45	0.242	0.131	0.0929
HCC-44	0.358	0.131	0.212	0.174	0.136	1.21	1.08	0.904	1.15	1.02	1.09	1	0.692	0.599	0.613	0.57	0.451	0.272
COR-L23	0.462	0.381	0.199	0.104	0.0775	1.19	1.09		0.964	1.3	0.585	0.631	0.359	0.275	0.846	0.945	0.43	0.234
EMC-BAC-2	0.211	0.177	0.161	0.224	0.177	1.49	1.21	0.776	1.19	1.23	0.934	1.05	0.914	0.879	0.865	0.873	0.846	0.8
LK-2	0.256	0.158	0.244	0.151	0.111	1.03	0.91	0.722	0.768	0.891	0.713	0.769	0.633	0.453	0.767	0.5	0.584	0.334
NCI-H460	0.47	0.303	0.329	0.0118	0.006	1.88	1.44		1.07	1.3	0.219	0.144	0.0819	0.0387	0.872		0.163	0.042
